Laboratory results taken from patent US20250228239A1, “MOLECULES HAVING PESTICIDAL UTILITY, AND INTERMEDIATES, COMPOSITIONS, AND PROCESSES, RELATED THERETO” (priority 2024, published 2025).

What was measured:
Type in all cases: in vivo
[1] = test system: Beet Armyworm (Spodoptera exigua, LAPHEG); assay: Bioassays on Beet Armyworm (BAW), 128-well diet tray assay; conditions: Spodoptera exigua; Table ABC: Biological Results; species BAW; read-out: BAW
Procedure, shortened: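 Second-instar larvae, one to five per well, were placed on artificial diet surface-treated with 50 μg/cm^2 compound in 90:10 acetone-water, eight wells per treatment. Trays were held 5–7 days at 25 °C, 14:10 light-dark. Percent mortality per well was averaged over eight wells.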

[2] = test system: Yellow Fever Mosquito (Aedes aegypti, AEDSAE); conditions: Table ABC: Biological Results; species YFM
Procedure, shortened: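 Rating-scale grades reflect larval mortality scored per well after 3 days at room temperature under non-evaporative lids. Larvae (~1 day old, hatched overnight in liver-powder water) were added to six daughter plates per compound, prepared from a 4000 ppm DMSO stock diluted in 90:10 water/acetone.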

[3] = test system: Cabbage Looper (Trichoplusia ni, TRIPNI); assay: Bioassays on Cabbage Looper (CL), 128-well diet tray assay; conditions: Trichoplusia ni; Table ABC: Biological Results; species CL; read-out: CL
Procedure, shortened: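 Each of eight wells receives artificial diet treated at 50 μg/cm^2 with the test molecule, then one to five second-instar larvae. Incubation runs five to seven days at 25° C with a 14:10 light-dark cycle under vented covers. Mortality is scored per well as a percentage and averaged.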

Row | Compound | pest or weed control at 50 µg/cm2 [1] | YFM [2] | pest or weed control at 50 µg/cm2 [3]
1 | CC(C)(C)OC(=O)Nc1c(F)ccc(NC(=O)c2cc(NC(=O)[C@H]3[C@H](c4ccc(Cl)c(C(F)(F)F)c4)C3(Cl)Cl)ccc2Cl)c1F (relative stereo) [F1077, trans-tert-Butyl-(3-(2-chloro-5-(2,2-dichloro-3-(4-chloro-3-(trifluoromethyl)phenyl)cyclopropane-1-carboxamido)benzamido)-2,6-difluorophenyl)carbamate] | 50 to 100% | A (80–100) | 50 to 100%
2 | CC(C)(C)OC(=O)Nc1c(F)ccc(NC(=O)c2cc(NC(=O)[C@H]3[C@H](c4ccc(F)c(C(F)(F)F)c4)C3(Cl)Cl)ccc2Cl)c1F (relative stereo) [F1078, trans-tert-Butyl-(3-(2-chloro-5-(2,2-dichloro-3-(4-fluoro-3-(trifluoromethyl)phenyl)cyclopropane-1-carboxamido)benzamido)-2,6-difluorophenyl)carbamate] | 50 to 100% | A (80–100) | 50 to 100%
3 | CC(=O)OCN(C(=O)c1cc(NC(=O)[C@H]2[C@H](c3cc(Cl)cc(Cl)c3)C2(Cl)Cl)ccc1Cl)c1ccc(F)cc1C#N (relative stereo) [F1084, trans-(2-Chloro-N-(2-cyano-4-fluorophenyl)-5-(2,2-dichloro-3-(3,5-dichlorophenyl)cyclopropane-1-carboxamido)benzamido)methyl acetate] | 50 to 100% | A (80–100) | 50 to 100%
4 | O=C(Nc1ccc(F)cc1F)c1cc(NC(=O)[C@H]2[C@H](c3ccc(I)cc3)C2(Cl)Cl)ccc1Cl (relative stereo) [F1087, trans-2-Chloro-5-(2,2-dichloro-3-(4-iodophenyl)cyclopropane-1-carboxamido)-N-(2,4-difluorophenyl)benzamide] | 50 to 100% | A (80–100) | 50 to 100%
5 | O=C(Nc1ccc(F)cc1F)c1cc(NC(=O)[C@H]2[C@H](c3cccc(I)c3)C2(Cl)Cl)ccc1Cl (relative stereo) [F1088, trans-2-Chloro-5-(2,2-dichloro-3-(3-iodophenyl)cyclopropane-1-carboxamido)-N-(2,4-difluorophenyl)benzamide] | 50 to 100% | A (80–100) | 50 to 100%
6 | O=C(Nc1ccc(F)cc1F)c1cc(NC(=O)[C@H]2[C@H](c3cccc(S(F)(F)(F)(F)F)c3)C2(Cl)Cl)ccc1Cl (relative stereo) [F1090, trans-2-Chloro-5-(2,2-dichloro-3-(3-(pentafluoro-λ^6-sulfanyl)phenyl)cyclopropane-1-carboxamido)-N-(2,4-difluorophenyl)benzamide] | 50 to 100% | A (80–100) | 50 to 100%
7 | O=C(Nc1ccc(F)cc1F)c1cc(NC(=O)[C@H]2[C@@H](c3cc(F)cc(Br)c3F)C2(Cl)Cl)ccc1Cl (relative stereo) [F1094, cis-5-(3-(3-Bromo-2,5-difluorophenyl)-2,2-dichlorocyclopropane-1-carboxamido)-2-chloro-N-(2,4-difluorophenyl)benzamide] | 50 to 100% | A (80–100) | 50 to 100%
8 | COc1ccc(CNc2c(F)ccc(NC(=O)c3cc(NC(=O)[C@H]4[C@H](c5ccc(F)c(C(F)(F)F)c5)C4(Cl)Cl)ccc3Cl)c2F)cc1 (relative stereo) [F1096, trans-2-Chloro-5-(2,2-dichloro-3-(4-fluoro-3-(trifluoromethyl)phenyl)cyclopropane-1-carboxamido)-N-(2,4-difluoro-3-((4-methoxybenzyl)amino)phenyl)benzamide] | 50 to 100% | A (80–100) | 50 to 100%
9 | O=C(Nc1ccc(F)cc1)c1c(F)ccc(NC(=O)[C@H]2[C@H](c3ccc(F)c(Cl)c3)C2(Cl)Cl)c1F (relative stereo) [F1100, trans-3-(2,2-Dichloro-3-(3-chloro-4-fluorophenyl)cyclopropane-1-carboxamido)-2,6-difluoro-N-(4-fluorophenyl)benzamide] | 50 to 100% | A (80–100) | 50 to 100%
10 | O=C(Nc1ccccc1)c1c(Cl)ccc(NC(=O)[C@H]2[C@H](c3ccc(F)c(Cl)c3)C2(Cl)Cl)c1Cl (relative stereo) [F1104, trans-2,6-Dichloro-3-(2,2-dichloro-3-(3-chloro-4-fluorophenyl)cyclopropane-1-carboxamido)-N-phenylbenzamide] | 50 to 100% | A (80–100) | 50 to 100%
11 | CN(C(=O)c1cc(NC(=O)[C@H]2[C@H](c3ccc(F)c(C(F)(F)F)c3)C2(Cl)Cl)ccc1Cl)c1ccc(F)c(N)c1F (relative stereo) [F1112, trans-N-(3-amino-2,4-difluorophenyl)-2-chloro-5-(2,2-dichloro-3-(4-fluoro-3-(trifluoromethyl)phenyl)cyclopropane-1-carboxamido)-N-methylbenzamide] | 50 to 100% | A (80–100) | 50 to 100%
12 | C=CCN(C(=O)c1cc(NC(=O)[C@H]2[C@H](c3ccc(F)c(C(F)(F)F)c3)C2(Cl)Cl)ccc1Cl)c1ccc(F)c(N)c1F (relative stereo) [F1113, trans-N-Allyl-N-(3-amino-2,4-difluorophenyl)-2-chloro-5-(2,2-dichloro-3-(4-fluoro-3-(trifluoromethyl)phenyl)cyclopropane-1-carboxamido)benzamide] | 50 to 100% | A (80–100) | 50 to 100%
13 | C#CCN(C(=O)c1cc(NC(=O)[C@H]2[C@H](c3ccc(F)c(C(F)(F)F)c3)C2(Cl)Cl)ccc1Cl)c1ccc(F)c(N)c1F (relative stereo) [F1114, trans-N-(3-Amino-2,4-difluorophenyl)-2-chloro-5-(2,2-dichloro-3-(4-fluoro-3-(trifluoromethyl)phenyl)cyclopropane-1-carboxamido)-N-(prop-2-yn-1-yl)benzamide] | 50 to 100% | A (80–100) | 50 to 100%
14 | Nc1c(F)ccc(NC(=O)c2cc(NC(=O)[C@H]3[C@H](c4ccc(Br)c(C(F)(F)F)c4)C3(Cl)Cl)ccc2Cl)c1F (relative stereo) [F1116, trans-N-(3-Amino-2,4-difluorophenyl)-5-(3-(4-bromo-3-(trifluoromethyl)phenyl)-2,2-dichlorocyclopropane-1-carboxamido)-2-chlorobenzamide] | 50 to 100% | A (80–100) | 50 to 100%
15 | Cc1cc(NCc2ccc(OC(F)(F)F)cc2)ccc1NC(=O)c1cc(NC(=O)[C@H]2[C@H](c3cc(Cl)cc(Cl)c3)C2(Cl)Cl)ccc1Cl (relative stereo) [F1117, trans-2-Chloro-5-(2,2-dichloro-3-(3,5-dichlorophenyl)cyclopropane-1-carboxamido)-N-(2-methyl-4-((4-(trifluoromethoxy)benzyl)amino)phenyl)benzamide] | 50 to 100% | A (80–100) | 50 to 100%
16 | O=C(Nc1ccc(F)cc1F)c1cc(NC(=O)[C@H]2[C@H](c3cc(Cl)cc(C(F)(F)F)c3)C2(Cl)Cl)ccc1Cl (relative stereo) [F1118, trans-2-Chloro-5-(2,2-dichloro-3-(3-chloro-5-(trifluoromethyl)phenyl)cyclopropane-1-carboxamido)-N-(2,4-difluorophenyl)benzamide] | 50 to 100% | A (80–100) | 50 to 100%
17 | CC(C)(C)OC(=O)Nc1c(F)ccc(NC(=O)c2cc(NC(=O)[C@H]3[C@H](c4cc(Cl)cc(C(F)(F)F)c4)C3(Cl)Cl)ccc2Cl)c1F (relative stereo) [F1119, trans-tert-Butyl-(3-(2-chloro-5-(2,2-dichloro-3-(3-chloro-5-(trifluoromethyl)phenyl)cyclopropane-1-carboxamido)benzamido)-2,6-difluorophenyl)carbamate] | 50 to 100% | A (80–100) | 50 to 100%
18 | Nc1c(F)ccc(NC(=O)c2cc(NC(=O)[C@H]3[C@H](c4cc(Cl)cc(C(F)(F)F)c4)C3(Cl)Cl)ccc2Cl)c1F (relative stereo) [F1127, trans-N-(3-Amino-2,4-difluorophenyl)-2-chloro-5-(2,2-dichloro-3-(3-chloro-5-(trifluoromethyl)phenyl)cyclopropane-1-carboxamido)benzamide] | 50 to 100% | A (80–100) | 50 to 100%
19 | Cc1cc(NCCO)ccc1NC(=O)c1cc(NC(=O)[C@H]2[C@H](c3cc(Cl)cc(Cl)c3)C2(Cl)Cl)ccc1Cl (relative stereo) [F1130, trans-2-chloro-5-(2,2-dichloro-3-(3,5-dichlorophenyl)cyclopropane-1-carboxamido)-N-(4-((2-hydroxyethyl)amino)-2-methylphenyl)benzamide] | 50 to 100% | A (80–100) | 50 to 100%
20 | Cc1cc(NC(=O)[C@H]2[C@H](c3ccc(F)c(Cl)c3)C2(Cl)Cl)cc(C(=O)Nc2ccc(F)cc2)c1F (relative stereo) [F1136, trans-5-(2,2-Dichloro-3-(3-chloro-4-fluorophenyl)cyclopropane-1-carboxamido)-2-fluoro-N-(4-fluorophenyl)-3-methylbenzamide] | 50 to 100% | A (80–100) | 50 to 100%
